Experimental findings from patent US20070004660A1, “Synergistic Modulation of Flt3 Kinase Using Alkylquinolines and Alkylquinazolines” (priority 2005, published 2007) are described below.

Molecules are shown by their SMILES.

This experiment deals with T1, isolated kinase domain of the human FLT3 receptor (a.a. 571-993) (Homo sapiens, UniProt P36888).
T1 construct: human FLT3 receptor (a.a. 571-993)
T1 sequence (P36888 571-993): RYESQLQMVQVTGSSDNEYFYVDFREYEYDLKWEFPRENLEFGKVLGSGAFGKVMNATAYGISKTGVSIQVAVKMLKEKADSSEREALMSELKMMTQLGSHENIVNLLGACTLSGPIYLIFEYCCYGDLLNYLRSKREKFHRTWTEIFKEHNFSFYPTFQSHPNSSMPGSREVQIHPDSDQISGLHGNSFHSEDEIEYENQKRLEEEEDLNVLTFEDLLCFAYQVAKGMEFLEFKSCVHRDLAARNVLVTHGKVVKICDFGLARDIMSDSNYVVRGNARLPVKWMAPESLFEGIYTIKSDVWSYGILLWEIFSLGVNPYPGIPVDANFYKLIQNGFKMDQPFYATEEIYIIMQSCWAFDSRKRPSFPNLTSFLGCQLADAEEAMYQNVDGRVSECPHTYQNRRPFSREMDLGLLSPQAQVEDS
Nature of the experiment: FLT3 fluorescence polarization kinase assay. In kind it is biochemical. Particulars: 150 uM ATP; uncertainty ±10%.
In general, IC50 refers to the point on the concentration scale where inhibition reaches its midpoint. Low values mean inhibition by little substance, high ones a need for much substance. As for `O=C1CCCN1CCOc1cc2ncnc(C3CCN(C(=O)Nc4ccc(N5CCCC5)cc4)CC3)c2cc1F` [Compound 206, 4-{6-Fluoro-7-[2-(2-oxo-pyrrolidin-1-yl)-ethoxy]-quinazolin-4-yl}-piperidine-1-carboxylic acid (4-pyrrolidin-1-yl-phenyl)-amide], the 50% inhibitory concentration (IC50) amounted to 28 nM.
For the molecule `COc1ccc2c(C3CCN(C(=O)Nc4ccc(OC(C)C)cc4)CC3)ncnc2c1` [Example 31, 4-(7-Methoxy-quinazolin-4-yl)-piperidine-1-carboxylic acid (4-isopropoxy-phenyl)-amide], the IC50 was found to be 21 nM.
For `COc1cc2ncnc(C3CCN(C(=O)Nc4ccc(NC(C)=O)cc4)CC3)c2cc1OC` [Example 25, 4-(6,7-Dimethoxy-quinazolin-4-yl)-piperidine-1-carboxylic acid (4-acetylamino-phenyl)-amide] the value was 6100 nM.
In turn, `COc1cc2ncnc(C3CCN(C(=O)Nc4ccc(I)cc4)CC3)c2cc1OC` [Example 2, 4-(6,7-Dimethoxy-quinazolin-4-yl)-piperidine-1-carboxylic acid (4-iodo-phenyl)-amide] had an IC50 of 210 nM.
The result for `CC(C)Oc1ccc(NC(=O)N2CCC(c3ncnc4cc(OCCCN5CCN(C)CC5)ccc34)CC2)cc1` [Example 39] reads 15 nM.
In the case of `CCN(CC)CCCOc1ccc2c(C3CCN(C(=O)Nc4ccc(OC(C)C)cc4)CC3)ncnc2c1` [Example 36, 4-[7-(3-Diethylamino-propoxy)-quinazolin-4-yl)-piperidine-1-carboxylic acid (4-isopropoxy-phenyl)-amide], half-maximal inhibition (IC50) was put at 18 nM.
On to `CC(C)c1ccc(NC(=O)N2CCC(c3ncnc4cc(Cl)ccc34)CC2)cc1` [Example 30, 4-(7-Chloro-quinazolin-4-yl)-piperidine-1-carboxylic acid (4-isopropyl-phenyl)-amide], for which 35 nM corresponded to half-maximal inhibition (IC50).
Molecule `CC(C)Oc1ccc(NC(=O)N2CCC(c3ncnc4cc(OCCN5CCOCC5)ccc34)CC2)cc1` [Example 37] registered a half-inhibitory concentration (IC50) of 7 nM.
`COc1cc2c(C3CCN(C(=O)Nc4ccc(N5CCCC5)cc4)CC3)ncnc2cc1N1CCOCC1` [Compound 211, 4-(6-Methoxy-7-morpholin-4-yl-quinazolin-4-yl)-piperidine-1-carboxylic acid (4-pyrrolidin-1-yl-phenyl)-amide] registered an IC50 of 8 nM.
`COc1cc2c(C3CCN(C(=O)Nc4ccc(N5CCCC5)cc4)CC3)ncnc2cc1OCCN1CCCC1=O` [Compound 209, 4-{6-Methoxy-7-[2-(2-oxo-pyrrolidin-1-yl)-ethoxy]-quinazolin-4-yl}-piperidine-1-carboxylic acid (4-pyrrolidin-1-yl-phenyl)-amide]: the concentration for half-maximal inhibition (IC50) was determined as 17 nM.
`COc1cc2ncnc(C3CCN(C(=O)Cc4ccc(C(C)C)cc4)CC3)c2cc1OC` [Example 28, 1-[4-(6,7-Dimethoxy-quinazolin-4-yl)-piperidin-1-yl]-2-(4-isopropyl-phenyl)-ethanone] had an IC50 of 8 nM.
Molecule `CC(C)Oc1ccc(NC(=O)N2CCC(c3ncnc4cc(Cl)ccc34)CC2)cc1` [Example 29, 4-(7-Chloro-quinazolin-4-yl)-piperidine-1-carboxylic acid (4-isopropoxy-phenyl)-amide] returned an IC50 of 150 nM.
For `COCCOc1ccc(NC(=O)N2CCC(c3ncnc4cc(OC)c(OC)cc34)CC2)cc1` [Example 40, 4-(6,7-Dimethoxy-quinazolin-4-yl)-piperidine-1-carboxylic acid [4-(2-methoxy-ethoxy)-phenyl]-amide] the value was 910 nM.
As to `O=C(Nc1ccc(N2CCCC2)cc1)N1CCC(c2ncnc3cc(N4CCOCC4)c(F)cc23)CC1` [Compound 210, 4-(6-Fluoro-7-morpholin-4-yl-quinazolin-4-yl)-piperidine-1-carboxylic acid (4-pyrrolidin-1-yl-phenyl)-amide], the 50% inhibitory concentration (IC50) turned out to be 21 nM.
For `CC(C)Oc1ccc(NC(=O)N2CCC(c3ncnc4cc(OCCCN5CCOCC5)ccc34)CC2)cc1` [Example 38] the value was 6 nM.
For `COc1cc2ncnc(C3CCN(C(=O)Nc4ccc(-n5ccnc5)cc4)CC3)c2cc1OC` [Example 3, 4-(6,7-Dimethoxy-quinazolin-4-yl)-piperidine-1-carboxylic acid (4-imidazol-1-yl-phenyl)-amide], the IC50 is 3900 nM.
The result for `COc1cc2c(C3CCN(C(=O)Nc4ccc(N5CCOCC5)cc4)CC3)ncnc2cc1N1CCOCC1` [Compound 212, 4-(6-Methoxy-7-morpholin-4-yl-quinazolin-4-yl)-piperidine-1-carboxylic acid (4-morpholin-4-yl-phenyl)-amide] reads 239 nM.
`COc1cc2ncnc(C3CCN(C(=O)Nc4ccc(N(C)C)cc4)CC3)c2cc1OC` [Example 26, 4-(6,7-Dimethoxy-quinazolin-4-yl)-piperidine-1-carboxylic acid (4-dimethylamino-phenyl)-amide] registered an IC50 of 200 nM.
With `CC(C)Oc1ccc(NC(=O)N2CCC(c3ncnc4cc(OCCN5CCCCC5)ccc34)CC2)cc1` [Example 34, 4-(7-(2-Piperindin-1-yl-ethoxy)-quinazolin-4-yl)-piperidine-1-carboxylic acid (4-isopropoxy-phenyl)-amide], the IC50 was 49 nM.
Regarding `COc1cc2c(C3CCN(C(=O)Nc4ccc(N5CCOCC5)cc4)CC3)ncnc2cc1OCCCN1CCN(C)CC1` [Compound 207, 4-{6-Methoxy-7-[3-(4-methyl-piperazin-1-yl)-propoxy]-quinazolin-4-yl}-piperidine-1-carboxylic acid (4-morpholin-4-yl-phenyl)-amide], it took 29 nM to reach half-maximal inhibition (IC50).
`CC(C)Oc1ccc(NC(=O)N2CCC(c3ncnc4cc(OCCCN5CCCCC5)ccc34)CC2)cc1` [Example 33, 4-(7-(3-Piperidin-1-yl-propoxy)-quinazolin-4-yl)-piperidine-1-carboxylic acid (4-isopropoxy-phenyl)-amide] yielded an IC50 of 11 nM.
`CCN(CC)CCOc1ccc2c(C3CCN(C(=O)Nc4ccc(OC(C)C)cc4)CC3)ncnc2c1` [Example 35, 4-[7-(2-Diethylamino-ethoxy)-quinazolin-4-yl)-piperidine-1-carboxylic acid (4-isopropoxy-phenyl)-amide] registered a half-maximal inhibitory concentration (IC50) of 47 nM.
Take `COc1ccc2c(C3CCN(C(=O)Nc4ccc(C(C)C)cc4)CC3)ncnc2c1` [Example 32, 4-(7-Methoxy-quinazolin-4-yl)-piperidine-1-carboxylic acid (4-isopropyl-phenyl)-amide]: inhibition was half-maximal at 11 nM (IC50).
